Assays:
[1] = test system: HUVEC; test: Cytotoxicity against HUVEC after 48 hrs by MTT assay; assay type: cell-based; conditions: Homo sapiens
[2] = test system: Hep 3B2; test: Cytotoxicity against human Hep3B cells at 20 uM after 48 hrs by MTT assay relative to control; assay type: functional
[3] = test system: Hep 3B2; test: Growth inhibition of human Hep3B cells at 10 uM after 24 hrs by MTT assay relative to control; assay type: functional; conditions: read-out: GI
[4] = Growth inhibition of HUVEC at 50 uM after 24 hrs by MTT assay relative to control; assay type: cell-based; conditions: human, HUVEC cells; read-out: GI
[5] = test system: Hep 3B2; test: Cell cycle arrest in human Hep3B cells assessed as accumulation at sub-G1 phase at 2.5 uM after 24 hrs by propidium iodide staining based flow cytometry (reference value: 1.9 to 3.6%); assay type: functional
[6] = test system: Hep 3B2; test: Cell cycle arrest in human Hep3B cells assessed as accumulation at sub-G1 phase at 2.5 uM after 48 hrs by propidium iodide staining based flow cytometry (reference value: 1.5 to 6.5%); assay type: functional
[7] = test system: Hep 3B2; test: Cell cycle arrest in human Hep3B cells assessed as accumulation at sub-G1 phase at 2.5 uM after 72 hrs by propidium iodide staining based flow cytometry (reference value: 0.6 to 3.3 %); assay type: functional
[8] = test system: Hep 3B2; test: Cell cycle arrest in human Hep3B cells assessed as accumulation at sub-G1 phase at 5 uM after 24 hrs by propidium iodide staining based flow cytometry (reference value: 1.9 to 3.6%); assay type: functional
[9] = test system: Hep 3B2; test: Cell cycle arrest in human Hep3B cells assessed as accumulation at sub-G1 phase at 5 uM after 48 hrs by propidium iodide staining based flow cytometry (reference value: 1.5 to 6.5%); assay type: functional
[10] = test system: Hep 3B2; test: Cell cycle arrest in human Hep3B cells assessed as accumulation at sub-G1 phase at 5 uM after 72 hrs by propidium iodide staining based flow cytometry (reference value: 0.6 to 3.3%); assay type: functional
[11] = test system: Hep 3B2; test: Cell cycle arrest in human Hep3B cells assessed as accumulation at sub-G1 phase at 10 uM after 24 hrs by propidium iodide staining based flow cytometry (reference value: 1.9 to 3.6%); assay type: functional
[12] = test system: Hep 3B2; test: Cell cycle arrest in human Hep3B cells assessed as accumulation at sub-G1 phase at 10 uM after 48 hrs by propidium iodide staining based flow cytometry (reference value: 1.5 to 6.5%); assay type: functional
[13] = test system: Hep 3B2; test: Cell cycle arrest in human Hep3B cells assessed as accumulation at sub-G1 phase at 10 uM after 72 hrs by propidium iodide staining based flow cytometry (reference value: 0.6 to 3.3%); assay type: functional
[14] = test system: Hep 3B2; test: Cell cycle arrest in human Hep3B cells assessed as accumulation at sub-G1 phase at 20 uM after 72 hrs by propidium iodide staining based flow cytometry (reference value: 0.6 to 3.3%); assay type: functional
[15] = test system: Hep 3B2; test: Cell cycle arrest in human Hep3B cells assessed as accumulation at G0/G1 phase at 10 uM after 24 hrs by propidium iodide staining based flow cytometry (reference value: 36.3 to 39.0%); assay type: functional
[16] = test system: Hep 3B2; test: Cell cycle arrest in human Hep3B cells assessed as accumulation at G0/G1 phase at 20 uM after 24 hrs by propidium iodide staining based flow cytometry (reference value: 36.3 to 39.0%); assay type: functional
[17] = test system: Hep 3B2; test: Cell cycle arrest in human Hep3B cells assessed as accumulation at G0/G1 phase at 20 uM after 48 hrs by propidium iodide staining based flow cytometry (reference value: 39.7 to 40.4%); assay type: functional
[18] = test system: Hep 3B2; test: Cell cycle arrest in human Hep3B cells assessed as accumulation at G0/G1 phase at 20 uM after 72 hrs by propidium iodide staining based flow cytometry (reference value: 41.6 to 46.2%); assay type: functional
[19] = test system: Hep 3B2; test: Cell cycle arrest in human Hep3B cells assessed as accumulation at S phase at 2.5 uM after 24 hrs by propidium iodide staining based flow cytometry (reference value: 22.6 to 27.1%); assay type: functional
[20] = test system: Hep 3B2; test: Cell cycle arrest in human Hep3B cells assessed as accumulation at S phase at 5 uM after 24 hrs by propidium iodide staining based flow cytometry (reference value: 22.6 to 27.1%); assay type: functional
[21] = test system: Hep 3B2; test: Cell cycle arrest in human Hep3B cells assessed as accumulation at S phase at 5 uM after 72 hrs by propidium iodide staining based flow cytometry (reference value: 16.4 to 21.1%); assay type: functional
[22] = test system: Hep 3B2; test: Cell cycle arrest in human Hep3B cells assessed as accumulation at S phase at 20 uM after 24 hrs by propidium iodide staining based flow cytometry (reference value: 22.6 to 27.1%); assay type: functional
[23] = test system: Hep 3B2; test: Cell cycle arrest in human Hep3B cells assessed as accumulation at S phase at 20 uM after 48 hrs by propidium iodide staining based flow cytometry (reference value: 20.8 to 24%); assay type: functional
[24] = test system: Hep 3B2; test: Cell cycle arrest in human Hep3B cells assessed as accumulation at G2/M phase at 5 uM after 72 hrs by propidium iodide staining based flow cytometry (reference value: 28.7 to 32.3%); assay type: functional
[25] = test system: Hep 3B2; test: Cell cycle arrest in human Hep3B cells assessed as accumulation at G2/M phase at 20 uM after 72 hrs by propidium iodide staining based flow cytometry (reference value: 28.7 to 32.3%); assay type: functional
[26] = test system: Hep 3B2; test: Induction of autophagy in human Hep3B cells at 2.5 uM after 24 hrs by acridine orange staining based flow cytometry (reference value: 1.1 to 1.3%); assay type: functional
[27] = test system: Hep 3B2; test: Induction of autophagy in human Hep3B cells at 2.5 uM after 48 hrs by acridine orange staining based flow cytometry (reference value: 0.9 to 3%); assay type: functional
[28] = test system: Hep 3B2; test: Induction of autophagy in human Hep3B cells at 2.5 uM after 72 hrs by acridine orange staining based flow cytometry (reference value: 1.1 to 4%); assay type: functional
[29] = test system: Hep 3B2; test: Induction of autophagy in human Hep3B cells at 5 uM after 24 hrs by acridine orange staining based flow cytometry (reference value: 1.1 to 1.3%); assay type: functional
[30] = test system: Hep 3B2; test: Induction of autophagy in human Hep3B cells at 5 uM after 48 hrs by acridine orange staining based flow cytometry (reference value: 0.9 to 3%); assay type: functional
[31] = test system: Hep 3B2; test: Induction of autophagy in human Hep3B cells at 5 uM after 72 hrs by acridine orange staining based flow cytometry (reference value: 1.1 to 4%); assay type: functional
[32] = test system: Hep 3B2; test: Induction of autophagy in human Hep3B cells at 10 uM after 24 hrs by acridine orange staining based flow cytometry (reference value: 1.1 to 1.3%); assay type: functional
[33] = test system: Hep 3B2; test: Induction of autophagy in human Hep3B cells at 20 uM after 72 hrs by acridine orange staining based flow cytometry (reference value: 1.1 to 4%); assay type: functional
[34] = test system: Hep 3B2; test: Induction of autophagy in human Hep3B cells at 2.5 to 20 uM by acridine orange staining based flow cytometry; assay type: functional, cell-based; conditions: TDE = time-dependent effect
[35] = test system: Hep 3B2; test: Induction of autophagy in human Hep3B cells at 10 uM after 72 hrs by acridine orange staining based flow cytometry (reference value: 1.1 to 4%); assay type: functional
[36] = test system: Hep 3B2; test: Induction of autophagy in human Hep3B cells at 20 uM after 24 hrs by acridine orange staining based flow cytometry (reference value: 1.1 to 1.3%); assay type: functional
[37] = test system: Hep 3B2; test: Induction of autophagy in human Hep3B cells at 20 uM after 48 hrs by acridine orange staining based flow cytometry (reference value: 0.9 to 3%); assay type: functional

| Structure (SMILES) | IC50 [1] [µM] | Activity [5] [%] | Activity [6] [%] | Activity [7] [%] | Activity [8] [%] | Activity [9] [%] | Activity [10] [%] | Activity [11] [%] | Activity [12] | Activity [13] [%] | Activity [14] [%] | Activity [26] [%] | Activity [27] [%] | Activity [28] [%] | Activity [29] [%] | Activity [30] [%] | Activity [31] [%] | Activity [32] [%] | Activity [33] [%] | Activity [34] | other results |
| --- | --- | --- | --- | --- | --- | --- | --- | --- | --- | --- | --- | --- | --- | --- | --- | --- | --- | --- | --- | --- | --- |
| CNC(=O)c1cc(Oc2ccc(NC(=O)Nc3ccc(Cl)c(C(F)(F)F)c3)cc2)ccn1 [SORAFENIB] | 40.6 | 5.2 | 4 | 5.3 | 7.3 | 5 | 7.2 | 6.9 | 11.8% | 13.7 | 65 | 2 | 1.3 | 2.3 | 2.4 | 1.5 | 6.1 | 3.2 | 84.9 | Tde | Activity [2]: 68.4%; inhibition of growth at 10 µM [3]: 8.6%; inhibition at 24 h, 50 µM [4]: 60%; Activity [15]: 53.6%; Activity [16]: 45.7%; Activity [17]: 27.8%; Activity [18]: 13.6%; Activity [19]: 21.9%; Activity [20]: 19.8%; Activity [21]: 13.7%; Activity [22]: 14.3%; Activity [23]: 9.6%; Activity [24]: 31.3%; Activity [25]: 15.2% |
| COc1ccc(CNC(=O)Nc2ncc([N+](=O)[O-])s2)cc1 | – | 3.1 | 3.4 | 1.6 | 4.2 | 5 | 2.4 | 5 | 3.3% | 1.3 | 2.1 | 4.7 | 8.1 | 6.4 | 5.3 | 6.3 | 10.9 | 5.9 | 15.5 | Tde | Activity [15]: 34.3%; Activity [16]: 33%; Activity [17]: 37.8%; Activity [18]: 43.6%; Activity [19]: 25.7%; Activity [20]: 25%; Activity [21]: 21.7%; Activity [22]: 25.1%; Activity [23]: 20%; Activity [24]: 33.9%; Activity [25]: 34.9%; Activity [35]: 13.2%; Activity [36]: 8.9%; Activity [37]: 5.5% |
| O=C1COc2ccccc2N1Cc1cn(CCC2OCCO2)nn1 | 115 | 6.2 | 6.5 | 7.9 | 12.4 | 14.2 | 18 | 22.4 | 37.4 - 41.4% | 54 | 65.7 | 1.3 | 1.9 | 1.9 | 1.6 | 5.1 | 12.8 | 2.4 | 57 | Tde | Activity [2]: 53.4%; inhibition of growth at 10 µM [3]: 18%; inhibition at 24 h, 50 µM [4]: 21.5%; Activity [35]: 49.4%; Activity [36]: 5.5%; Activity [37]: 37% |

Reference: ChEMBL document CHEMBL4024707, “Using gene expression database to uncover biology functions of 1,4-disubstituted 1,2,3-triazole analogues synthesized via a copper (I)-catalyzed reaction” (Eur J Med Chem, 2017)
